The values below come from patent US11458138B2 (Novartis AG, priority 2017, dated 2022).

The structures appear in SMILES notation. “Also recorded” adds a separate entry of the source.

One assay relates to limbal stem cells (LSCs). The assay can be described thus: Immunolabelling of LSC markers DeltaN-p63 alpha/beta/gamma, ABCG2, C/EBP delta. It is filed as cell-based, human. The settings on record: vs cells cultured in DMSO. An excerpt:
In contrast, cells cultured in the presence of LATS inhibitors express markers such as DeltaN-p63 alpha/beta/gamma, ABCG2 and C/EBP delta, normally expressed by LSCs.
(3) The cells express one or more of ABCB5, ABCG2, and C/EBPδ. The expression of ABCB5, ABCG2, and C/EBPδ may be estimated by standard techniques known in the art, such as for example immunohistochemistry and quantitative RT-PCR.

Assay [1] has as its system human corneal endothelial cells (CECs). The assay can be described thus: CEC population expansion, markers Collagen 8a2, AQP1, SLC4A11, RPE65, CD31 and Na/K ATPase (RT-PCR, immunohistochemistry). It is filed as cell-based. The settings on record: 10 micromolar, 10 days. As to the method: In order to verify that the expanded cell population expresses genes normally expressed by corneal endothelial cells in vivo, cells were cultured and RT-PCR analysis was then performed to measure the expression levels of Collagen 8a2, AQP1, SLC4A11, RPE65 and CD31. Immunohistochemical analysis was also performed to analyse the levels of Na/K ATPase and Collagen 8a2 as follows.
Cells were cultured at 37° C. in 5% CO2 for 10 days.
To perform the RT-PCR analysis, total RNA was extracted using Trizol (Invitrogen), RNeasy Mini and QIA Shredder (Qiagen) according to manufacturer's protocol. RNA quality and quantity were measured using Nanodrop 100 (Thermo-Fisher Scientific) and Bioanalyzer 2100 (Agilent Technologies). cDNA was prepared by reverse transcription and relative mRNA expression was assessed by quantitative RT-PCR using an 7900HT system (Applied Biosystems). The following cycling parameters were used:
1) 50° C. for 2 minutes; 2) 95° C. for 10 minutes; 3) 95° C. for 15 seconds 4) 60° C. for 1 minute. Steps 3-4 were repeated 40 times.
Actin mRNA levels were measured and used as a endogenous controls to normalize gene expression levels and calculate delta Ct values according to the formula dCt=Ct for gene of interest−Ct for endogenous control. Primers were obtained from Applied Biosystems. […]

The test system of assay [2] is corneal endothelial cell population. The assay can be described thus: Immunohistochemical analysis of expanded corneal endothelial cell population. It is filed as cell-based, human. An excerpt: (1) The cells express Na/K ATPase. The expression of Na/K ATPase may be estimated by standard techniques known in the art, such as for example immunohistochemistry, quantitative RT-PCR or by FACS analysis.

For the next assay, the system named is mouse dorsal skin. Briefly: In Vivo Histology and Ki67 Staining Assay (skin cell proliferation). Particulars: intact mouse dorsal skin, topical, three days of twice-a-day dosing, vs vehicle. As to the method: Further, the compounds of the invention increase skin cell proliferation in vivo when applied topically. The study was conducted as described the “In Vivo Histology and Ki67 Staining Assay” in the Examples Section A. Example 133 or vehicle were applied to intact mouse dorsal skin. After three days of twice-a-day dosing, the skin samples were collected and subjected to immunohistology staining for Ki67. The sections were evaluated visually for cell proliferation and for the abundance of Ki67 positive cells. The study results are documented in FIGS. 35A and 35B.
FIG. 35B compares the abundance of Ki67 positive cell in untreated and treated mouse skin. […] Also, by using siRNA to knockdown both LATS1 and LATS2, LATS as a negative regulator of the YAP pathway has also been validated.

In the next assay the test system is YAP target gene Cyr61. Briefly: In Vivo PD Assay: YAP target gene expression in mouse excisional wounds. Particulars: mouse full-thickness excisional wounds, topical 0.2 and 2 mg/mL, two daily doses, vs vehicle, dose-dependent. As for the experimental part: The compounds of the invention also activate the YAP pathway in vivo. A study of YAP pathway target gene expression was conducted in an in vivo mouse model as described in the In Vivo PD Assay in the Examples Section A. Two full-thickness excisional wounds on the dorsum of an anesthetized mouse were treated topically with vehicle, or 0.2 and 2 mg/mL of Example 133. After two daily doses, the skin samples around the wound edge were collected and Taqman analyses were performed using Cyr61 and Gapdh probes. mRNA expression levels for the target genes were normalized to Gapdh mRNA levels and plotted against the concentration of Example 133 in FIG. 34. […] The result is consistent with known LATS biology for activation of the YAP pathway.

A further assay addresses LATS1 (Homo sapiens (Human), UniProt O95835). The assay can be described thus: Target Identification Assay: inhibition of LATS1 activity (FIG. 33C). The class given is biochemical. The settings on record: read-out: IC50 against LATS1. An excerpt: The result further confirmed that the compounds of the invention are potent inhibitors of the LATS kinases.
For assay [3], the system named is human keratinocytes (HaCaT). The assay can be described thus: In vitro YAP pathway activation and cell proliferation in human keratinocytes (HaCaT). The class given is cell-based. The text has this:
Accordingly, Example 133 is useful in promoting skin regeneration.

Assay [4] concerns pYAP (Ser127) in human HaCaT cells. Briefly: Target Identification Assay: western blot for pYAP in HaCaT cell lysates. It is filed as cell-based. Particulars: 9 μM for 1 hour in the presence of 0.5 μM Okadaic acid. As for the experimental part: Compounds of Formula A1, or subformulae thereof, selectively target LATS1/2 versus MST1/2 kinases. To identify the target of the hits from the YAP translocation assay screen, the Target Identification Assay as described in the Examples Section A was performed. The results of the assay are described in FIGS. 33A to 33C.
It is consistent with the consensus in the field that LATS is responsible for YAP phosphorylation.
On the technique in general: A western blot detects proteins with antibodies after separation by electrophoresis.

Assay [5] has as its system Ki67-positive hepatocytes. The assay can be described thus: In vivo treatment of mice: immunohistochemistry (IHC) for Ki67 in liver. The settings on record: mouse liver, single oral dose 10 mg/kg, 24 h post-dose, relative to vehicle, mean+/-SEM. As to the method: All animal studies were carried out in accordance with federal, state, local and institutional guidelines governing the use of laboratory animals in research. Male C57BL/6J mice (age 8-10 weeks) were purchased from Jackson Labs (Bar Harbor, Me.). Example 46 was formulated for oral dosing at 3 mg/ml, and Example 261 at 1 mg/ml, in a suspension of methylcellulose:Tween80:Water (0.5:0.5:99). Single oral dose of either compound was at 10 mL/kg body weight. Blood and liver tissue were collected under deep anesthesia (isoflurane) at either 2 h post-dose (for mRNA analysis) or 24 h post-dose (for immunohistochemistry).
Liver tissue was fixed in 10% neutral buffered formalin for 24-48 h. Processing and embedding in paraffin was by standard procedures. Sections were cut at 5 microns thickness and stained using a Ventana automated system. Primary antibody for mouse Ki67 was a rabbit IgG (Bethyl Labs). Ki67-positive hepatocytes were quantified by image analysis using the HALO platform. At least 3 sections per animal were analyzed, from the middle of the medial lobe.

LATS1, sequence (O95835 whole entry): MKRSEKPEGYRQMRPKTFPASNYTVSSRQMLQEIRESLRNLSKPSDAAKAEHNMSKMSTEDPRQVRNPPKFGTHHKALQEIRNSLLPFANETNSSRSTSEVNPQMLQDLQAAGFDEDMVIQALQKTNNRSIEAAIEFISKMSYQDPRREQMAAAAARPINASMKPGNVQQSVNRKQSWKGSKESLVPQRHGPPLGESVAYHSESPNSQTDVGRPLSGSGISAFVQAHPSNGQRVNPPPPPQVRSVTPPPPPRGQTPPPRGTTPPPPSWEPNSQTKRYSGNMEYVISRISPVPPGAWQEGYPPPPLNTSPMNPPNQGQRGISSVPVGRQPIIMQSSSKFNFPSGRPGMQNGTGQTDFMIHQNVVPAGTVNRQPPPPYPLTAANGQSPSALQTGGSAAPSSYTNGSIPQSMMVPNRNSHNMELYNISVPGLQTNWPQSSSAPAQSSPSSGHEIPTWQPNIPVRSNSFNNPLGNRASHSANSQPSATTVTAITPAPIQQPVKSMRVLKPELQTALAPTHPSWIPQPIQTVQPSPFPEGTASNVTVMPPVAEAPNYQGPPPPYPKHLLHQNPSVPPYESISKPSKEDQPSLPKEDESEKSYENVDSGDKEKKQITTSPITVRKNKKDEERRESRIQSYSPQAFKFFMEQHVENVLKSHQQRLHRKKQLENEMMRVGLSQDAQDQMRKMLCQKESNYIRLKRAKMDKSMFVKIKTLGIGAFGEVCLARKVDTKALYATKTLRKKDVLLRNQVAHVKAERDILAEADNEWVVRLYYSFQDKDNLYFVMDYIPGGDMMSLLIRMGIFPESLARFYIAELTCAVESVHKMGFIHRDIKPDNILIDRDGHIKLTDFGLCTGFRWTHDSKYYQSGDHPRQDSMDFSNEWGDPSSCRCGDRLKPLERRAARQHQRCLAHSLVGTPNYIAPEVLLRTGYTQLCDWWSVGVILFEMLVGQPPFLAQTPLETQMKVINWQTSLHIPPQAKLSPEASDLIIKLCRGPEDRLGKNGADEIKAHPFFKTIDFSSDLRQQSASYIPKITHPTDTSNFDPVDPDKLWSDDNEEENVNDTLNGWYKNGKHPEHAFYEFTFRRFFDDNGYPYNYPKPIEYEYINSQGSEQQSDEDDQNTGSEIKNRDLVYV

Regarding `CC(C)(O)CC(C)(C)Nc1nc(-c2ccncc2)nc2cnccc12` [Example 49, 2,4-dimethyl-4-{[2-(pyridin-4-yl)pyrido[3,4-d]pyrimidin-4-yl]amino}pentan-2-ol], in the assay with limbal stem cells (LSCs), the “expression of LSC markers DeltaN-p63 alpha/beta/gamma, ABCG2 and C/EBP delta” value is given as “express typical markers of LSCs”. The “Expression of corneal endothelial cell genes by the expanded CEC population” value in assay [1] is “express genes normally expressed by corneal endothelial cells in vivo, including Collagen 8a2, AQP1, SLC4A11; also recorded: express genes normally expressed by corneal endothelial cells in vivo, including Na/K ATPase”. Moreover, in assay [2], the “expression of Na/K ATPase and Collagen 8a2 by immunohistochemistry” value is “express genes normally expressed by corneal endothelial cells in vivo”.
Consider `Cc1n[nH]cc1-c1nc(NC2(C)CC2)c2ccncc2n1` [Example 133, 2-(3-methyl-1H-pyrazol-4-yl)-N-(1-methylcyclopropyl)pyrido[3,4-d]pyrimidin-4-amine], for which, in the assay on mouse dorsal skin, the “abundance of Ki67 positive cells” value turned out to be 10%; the “basal cell proliferation and epidermal thickness” value is “significant increase in basal cell proliferation and epidermal thickness; also recorded: increased basal layer skin cell growth”. The “expression of LSC markers DeltaN-p63 alpha/beta/gamma, ABCG2 and C/EBP delta” value with limbal stem cells (LSCs) is on record as “express typical markers of LSCs”. For the same compound, the “YAP target gene Cyr61 mRNA normalized to Gapdh” value in the assay on YAP target gene Cyr61 is listed as “significantly up-regulated; also recorded: induced YAP target gene expression”. Moreover, at LATS1, the IC50 was determined as 1.3 nM. In addition, in [3], the “YAP pathway activation in vitro” value is “activated the YAP pathway” and the “cell proliferation in human keratinocytes (HaCaT)” value is on record as “promoted cell proliferation”. Also, the “pYAP by western blot” value in assay [4] is “dramatically inhibited”.
For `CC(C)(C)Nc1cc(-c2ccncc2)nc2cnccc12` [Example 261, N-(tert-butyl)-2-(pyridin-4-yl)-1,7-naphthyridin-4-amine], the “Ki67 IHC (fold-change)” value in assay [5] is 3.1 (+/−0.5) fold-change.

Broadly, the IC50 is the midpoint of a concentration-inhibition curve.
